The values that follow come from article PMC5917093, “Brain Transport Profiles of Ginsenoside Rb1 by Glucose Transporter 1: In Vitro and in Vivo” (Frontiers in Pharmacology, 2018).

In general, Ki refers to a dissociation constant, usually derived from enzyme kinetics or from competition with a known ligand.

The test system of series [1] is rBMEC (primary cultured rat brain microvascular endothelial cells). The series is described as follows: Transporter inhibition assays: Rb1 uptake into rBMEC in presence of inhibitors. It is filed as in vitro ADME. To be noted: Rb1 60 μg/mL, 37°C; for effect on Rb1 uptake into rBMEC versus control: 120 min. Here is the method:
In the present study, the uptake at 120 min was selected to measure the effect of test agents on the transport characteristics of Rb1. Rb1 concentration was set to be 60 μg/mL. The rBMEC was seeded out in 6-well plates, allowed to adhere, and grown to confluency. To study the transport mechanisms, uptake of Rb1 was carried out in the presence of a metabolic energy inhibitor and a series of established transporter inhibitors. The impact of these inhibitors on Rb1 uptake by rBMEC was assessed at the steady state at 37°C. NaN3 (500 μM), probenecid (100 μM), CsA (25, 50, and 100 μM), or phloretin (5 μM) was added to inhibit different transport systems. In the inhibition study, to further assess the effect of phloretin on Rb1 uptake into rBMEC, the cells were incubated at 37°C at a set time (5, 15, 30, 60, and 120 min). Uptake was measured after incubation with Rb1 in the presence of phloretin at the concentration of 5 μM.
HPLC–MS/MS was composed by a Shimadzu LC-20A chromatographic system and an API 4000 mass spectrometer equipped with electrospray ionization (ESI) source system. MS/MS detection was performed on an API 4000 mass spectrometer using multiple reaction monitoring (MRM) mode by monitoring the fragmentation of m/z 1107.6 → 179.0 for Rb1 and m/z 779.4 → 345.2 for digoxin (IS). Chromatographic separations were carried out on a Shim-pack XD-ODS column (2.0 mm × 30 mm, 2.2 μm) with a Shim-pack GVD-ODS (2.0 mm × 5 mm, 4.6 μm) guard column (Shimadzu, Japan) at a flow rate of 0.28 mL/min using 10 mM acetic acid in water (phase A) and methanol (phase B) as mobile phase. A linear step gradient elution was performed as followed: phase B was increased from 45 to 90% within the first 3 min, and decreased to 45% within the next 3 min (total gradient time: 6 min). A 10 μL sample was injected into the system with the auto-sample conditioned at 4°C and column temperature maintained at 40°C.
The biological samples (100 μL) were placed in a 1.5 mL Eppendorf tube, and mixed with 10 μL IS solution (500 ng/mL) for 3 min by vortexing. The mixture was extracted with methanol (0.9 mL) by vortexing, and then centrifuged at 14,000 rpm for 5 min. The supernatant (0.8 mL) was transferred to a new 1.5 mL Eppendorf tube and evaporated to dryness under vacuum. The dried residue was reconstituted with 100 μL methanol, vortex-mixed for 30 s, and centrifuged at 14,000 rpm for 5 min. Finally, 10 μL of the supernatant liquid was immediately subjected to HPLC–MS/MS analysis. The system control and data analysis were performed by AB Sciex Analyst software (the software version: Analyst 1.5.1).

A further series has as its system rBMEC. As to the kind of experiment: Cell viability assessment, CCK-8 assay. To be noted: 37°C, 4 h.
Series [2] addresses T1, GLUT1 (Rattus norvegicus, UniProt P11167).
T1 construct: GLUT1, as the major GLUT isoform expressed in brain endothelial cells; endogenous in cells; host or cells: primary cultured rat brain microvascular endothelial cells (rBMEC)
T1 sequence (P11167 1-492): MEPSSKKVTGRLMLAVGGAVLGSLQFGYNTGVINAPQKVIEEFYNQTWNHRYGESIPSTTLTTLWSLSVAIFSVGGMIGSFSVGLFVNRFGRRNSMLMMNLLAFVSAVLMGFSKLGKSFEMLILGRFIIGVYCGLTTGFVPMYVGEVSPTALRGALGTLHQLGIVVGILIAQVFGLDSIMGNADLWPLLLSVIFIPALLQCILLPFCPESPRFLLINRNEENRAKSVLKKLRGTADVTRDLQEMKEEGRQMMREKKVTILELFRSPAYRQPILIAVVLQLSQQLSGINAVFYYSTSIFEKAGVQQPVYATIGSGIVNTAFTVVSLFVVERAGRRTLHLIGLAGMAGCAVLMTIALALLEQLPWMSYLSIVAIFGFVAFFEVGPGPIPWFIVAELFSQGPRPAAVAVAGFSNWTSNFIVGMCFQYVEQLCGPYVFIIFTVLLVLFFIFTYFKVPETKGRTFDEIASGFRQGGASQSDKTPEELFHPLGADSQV
As to the kind of experiment: Competitive inhibition of Rb1 uptake by rBMEC by D-glucose (Lineweaver-Burk plot). To be noted: 100 mM D-glucose, Rb1 30-960 μg/mL, 37°C, 120 min. The class given is in vitro ADME. Here is the method: In the competition experiments, Rb1 uptake (30–960 μg/mL) was measured in the absence and presence of D-glucose (100 mM) which is a principal physiological substrate of GLUT1. Briefly, cells were grown in 6-well plates for 7 days before their medium was removed, pre-incubated with warm glucose-free Hanks’ solution for 30 min. Subsequently, samples and controls were treated as described transport studies, but this time in addition with 100 mM D-glucose to the various concentrations of Rb1 in glucose-free Hanks’ solution at 37°C for 120 min.

Series [3] has as its target GLUT1. More on the design: method as in Burant and Bell, 1992. The following applies: ref Burant and Bell, 1992; read-out: Ki of GLUT1 for glucose; cited from earlier work.
Details of series [4]: method as in Li et al., 2007. To be noted: rats, TPNS injection 10.0 mg/kg intravenous; ref Li et al., 2007; cited from earlier work.
For series [5], the system named is GLUT1. As to the kind of experiment: Western blot, GLUT1 expression in rBMEC. The following applies: phloretin 5 μM together with Rb1 60 μg/mL; at 30, 60 and 120 min. It is filed as cell-based, rat. Here is the method: (§1) Total proteins were extracted and 60 μg of each protein was separated on SDS-10% polyacrylamide gels. Proteins on the gel were transferred to PVDF membrane (Merck-Millipore). Blots were blocked with 5% skimmed milk dissolved in PBS containing 0.1% Tween-20 (PBST) for 2 h at room temperature. The membrane was incubated with primary antibody at 4°C overnight. Washing of the blots with PBST three times was followed by incubation with horseradish peroxidase-conjugated secondary antibody for 2 h at room temperature. After washing, the chemiluminescence signal was monitored using the ChemiDoc XRS+ system (Bio-Rad, Hercules, CA, United States). Densitometric semi-quantitative analysis of protein bands was carried out using Image J.
In general terms: Immunoblotting shows a protein as a band on a membrane.

Series [6] deals with GLUT1. The series is described as follows: Western blot, GLUT1 expression in normal rat brain. The class given is in vivo. To be noted: phloretin 5 mg/kg i.v. for 1 week, P < 0.05. The method, then:
Rats were randomly divided into two groups in 36 of each group. One group served as the control and another group were treated with phloretin. Dose of phloretin was set to be 5 mg/kg. Rb1 (10 mg/kg, i.v.) was administered to the experimental rats after i.v. administration of phloretin or saline for consecutive 1 week. Six rats from each group were selected and the blood samples were collected into heparinized Eppendorf tubes via the abdominal aorta at 0.5, 2, and 6 h after Rb1 administration. Then, brain samples were immediately collected. The plasma samples were obtained by centrifuging at 1000 × g for 10 min. Plasma and brain samples were frozen at -80°C until analysis. Total proteins were extracted and 60 μg of each protein was separated on SDS-10% polyacrylamide gels. Proteins on the gel were transferred to PVDF membrane (Merck-Millipore). Blots were blocked with 5% skimmed milk dissolved in PBS containing 0.1% Tween-20 (PBST) for 2 h at room temperature. The membrane was incubated with primary antibody at 4°C overnight. […] After washing, the chemiluminescence signal was monitored using the ChemiDoc XRS+ system (Bio-Rad, Hercules, CA, United States). Densitometric semi-quantitative analysis of protein bands was carried out using Image J.

In a further series the test system is GLUT3. As to the kind of experiment: Western blot, GLUT3 expression in rBMEC. The class given is cell-based, rat. To be noted: phloretin 5 μM together with Rb1 60 μg/mL. Here is the method: as §1

Consider `C=C1[C@@H](C)[C@H]2[C@H](Cc3ccccc3)NC(=O)[C@]23OC(=O)/C=C/C(=O)CCC[C@@H](C)C/C=C/[C@H]3[C@@H]1O` [CsA, cytochalasin A], for which the “effect on Rb1 uptake into rBMEC versus control” value in series [1] (CsA 25, 50 and 100 μM) is given as “no statistically significant differences”. For the same compound, the “viability of rBMEC versus control (CCK-8)” value with rBMEC (CsA 25, 50 and 100 μM) is “no statistically significant differences”.

`OC[C@H]1OC(O)[C@H](O)[C@@H](O)[C@@H]1O` (stereo partly drawn) [D-glucose]: the values for the Ki on GLUT1 [2] and on GLUT1 [3] were 885 µM and around 1000 µM, respectively.

For the compound `[N-]=[N+]=[N-].[Na+]` [NaN3, sodium azide], the “effect on Rb1 uptake into rBMEC versus control” value in series [1] (NaN3 500 μM) is recorded as “no statistically significant differences”. Moreover, the “viability of rBMEC versus control (CCK-8)” value with rBMEC (NaN3 500 μM) is “no statistically significant differences”.

As for `CC(C)=CCC[C@](C)(O[C@@H]1O[C@H](CO)[C@@H](O)[C@H](O)[C@H]1O)[C@H]1CC[C@]2(C)[C@@H]1[C@H](O)C[C@@H]1[C@@]3(C)CC[C@H](O)C(C)(C)[C@@H]3[C@@H](O[C@@H]3O[C@H](CO)[C@@H](O)[C@H](O)[C@H]3O)C[C@]12C` [Rg1, ginsenoside Rg1], in series [4], the “duration in brain tissue” value was around 1 h and the “largest content in brain tissue” value is listed as “about 0.2 μg/g”.

With `O=C(CCc1ccc(O)cc1)c1c(O)cc(O)cc1O` [phloretin], the “expression level of GLUT1 in rBMEC versus control” value in the series with GLUT1 [5] is “significantly lower”. The “effect on cell-to-medium (C/M) ratio of Rb1, time course” value in series [1] (phloretin 5 μM, 5-120 min, especially from min 30 to 120) is on record as “significantly decreased”. Moreover, the “effect on Rb1 uptake into rBMEC versus control” value in series [1] (phloretin 5 μM, P < 0.01) is “significant decrease”. For the same compound, the “viability of rBMEC versus control (CCK-8)” value in the series with rBMEC (phloretin 5 μM) was “no statistically significant differences”. Besides, in the series with GLUT1 [6], the “expression level of GLUT1 in brain versus untreated normal rats” value is “significantly decreased”. In addition, in the series with GLUT3, the “expression level of GLUT3 in rBMEC versus control” value was “no significant difference”.

Regarding `CCCN(CCC)S(=O)(=O)c1ccc(C(=O)O)cc1` [probenecid], the “effect on Rb1 uptake into rBMEC versus control” value in series [1] (probenecid 100 μM) was “no statistically significant differences”. Further, the “viability of rBMEC versus control (CCK-8)” value in the series with rBMEC (probenecid 100 μM) is “no statistically significant differences”.
